Key:
[1] = system: pigweed; experiment: Test A preemergence; format: in vivo, Amaranthus retroflexus
In short: (§1)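 Compounds in non-phytotoxic solvent with surfactant applied as soil spray preemergence, or postemergence to plants 2-10 cm at one- to two-leaf stage, in loam/sand. After approximately 10 days in greenhouse, injury rated visually versus untreated controls, 0 (no effect) to 100 (complete control).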

[2] = system: large (Lg) crabgrass; experiment: Test C postemergence; format: in vivo, Digitaria sanguinalis; conditions: for Plant response rating, Crabgrass, Large: Postemergence
In short: (§2)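 Seeds were sown in loam–sand blend and sprayed preemergence, while plants at 1- to 4-leaf stage (2–18 cm) in peat-based medium received postemergence sprays; test chemicals were formulated in a non-phytotoxic solvent with surfactant. After 13–15 days in a greenhouse, injury was rated visually against controls, 0 (no effect) to 100 (complete control).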

[3] = system: giant foxtail; experiment: Test A preemergence; format: in vivo, Setaria faberii
In short: as §1

[4] = system: waterhemp; experiment: Test C postemergence; format: in vivo, Amaranthus rudis; conditions: for Plant response rating, Waterhemp: Postemergence, scale 0 to 100 (0 no effect, 100 complete control)
In short: as §2

[5] = system: galium; experiment: Test C postemergence; format: in vivo, Galium aparine; conditions: for Plant response rating, Galium: Postemergence
In short: as §2

[6] = system: lambsquarters; experiment: Test C postemergence; format: in vivo, Chenopodium album; conditions: for Plant response rating, Lambsquarters: Postemergence, scale 0 to 100 (0 no effect, 100 complete control)
In short: as §2

[7] = system: oilseed rape; experiment: Test C postemergence; format: in vivo, Brassica napus; conditions: for Plant response rating, Oilseed Rape: Postemergence, scale 0 to 100 (0 no effect, 100 complete control)
In short: as §2

[8] = system: barnyardgrass; experiment: Test C postemergence; format: in vivo, Echinochloa crus-galli; conditions: for Plant response rating, Barnyardgrass: Postemergence
In short: as §2

[9] = system: barnyardgrass; experiment: Test A preemergence; format: in vivo, Echinochloa crus-galli
In short: as §1

[10] = system: pigweed; experiment: Test A postemergence; format: in vivo, Amaranthus retroflexus; conditions: 0 to 100 scale where 0 is no effect and 100 is complete control
In short: as §1

[11] = system: johnsongrass; experiment: Test C postemergence; format: in vivo, Sorghum halepense; conditions: for Plant response rating, Johnsongrass: Postemergence
In short: as §2

[12] = system: wild oat; experiment: Test C postemergence; format: in vivo, Avena fatua; conditions: for Plant response rating, Oat, Wild: Postemergence, scale 0 to 100 (0 no effect, 100 complete control)
In short: as §2

[13] = system: blackgrass; experiment: Test C postemergence; format: in vivo, Alopecurus myosuroides; conditions: for Plant response rating, Blackgrass: Postemergence
In short: as §2

[14] = 125 g ai/ha, 0 to 100 scale where 0 is no effect and 100 is complete control
[15] = 500 g ai/ha, 0 to 100 scale, 0 no effect, 100 complete control, approx. 10 days
[16] = 16 g ai/ha, postemergence, visual rating, scale 0 to 100 (0 no effect, 100 complete control), 13 to 15 days
[17] = 31 g ai/ha, scale 0 to 100 (0 no effect, 100 complete control), 13 to 15 days
[18] = 62 g ai/ha, scale 0 to 100 (0 no effect, 100 complete control)

CC(C)c1cnn(-c2c(C#N)cccc2Oc2ncc(Cl)cn2)c1 [Compound 85]
Plant response rating, Pigweed [1, 14]: 100 | Pigweed plant response rating [1, 15]: 100 | Crabgrass, Large plant response rating [2, 16]: 10 | Plant response rating (0 to 100), Crabgrass, Large ([2]; 125 g ai/ha, postemergence): 10 | Plant response rating, Crabgrass, Large [2, 17]: 10 | Plant response rating, Crabgrass, Large [2, 18]: 5 | Plant response rating, Foxtail, Giant [3, 14]: 100 | Foxtail, Giant plant response rating [3, 15]: 100 | Plant response rating (0 to 100), Waterhemp ([4]; 125 g ai/ha, postemergence): 60 | Plant response rating, Waterhemp ([4]; 31 g ai/ha, 13 to 15 days): 55 | Plant response rating, Waterhemp ([4]; 62 g ai/ha): 70 | Galium plant response rating [5, 16]: 40 | Plant response rating (0 to 100), Galium ([5]; 125 g ai/ha, postemergence): 75 | Plant response rating, Galium [5, 17]: 50 | Plant response rating, Galium [5, 18]: 50 | Plant response rating (0 to 100), Lambsquarters ([6]; 125 g ai/ha, postemergence): 70 | Plant response rating, Lambsquarters ([6]; 31 g ai/ha, 13 to 15 days): 55 | Plant response rating, Lambsquarters ([6]; 62 g ai/ha): 75 | Plant response rating (0 to 100), Oilseed Rape ([7]; 125 g ai/ha, postemergence): 15 | Plant response rating, Oilseed Rape ([7]; 31 g ai/ha, 13 to 15 days): 5 | Plant response rating, Oilseed Rape ([7]; 62 g ai/ha): 30 | Barnyardgrass plant response rating [8, 16]: 10 | Plant response rating (0 to 100), Barnyardgrass ([8]; 125 g ai/ha, postemergence): 5 | Plant response rating, Barnyardgrass [8, 17]: 5 | Plant response rating, Barnyardgrass [8, 18]: 5 | Plant response rating, Barnyardgrass [9, 14]: 20 | Barnyardgrass plant response rating [9, 15]: 100 | Plant response rating, Pigweed ([10]; 125 g ai/ha): 80 | Plant response rating, Pigweed ([10]; 500 g ai/ha): 100 | Johnsongrass plant response rating [11, 16]: 0 | Plant response rating (0 to 100), Johnsongrass ([11]; 125 g ai/ha, postemergence): 10 | Plant response rating, Johnsongrass [11, 17]: 0 | Plant response rating, Johnsongrass [11, 18]: 5 | Plant response rating (0 to 100), Oat, Wild ([12]; 125 g ai/ha, postemergence): 5 | Plant response rating, Oat, Wild ([12]; 31 g ai/ha, 13 to 15 days): 0 | Plant response rating, Oat, Wild ([12]; 62 g ai/ha): 5 | Blackgrass plant response rating [13, 16]: 0 | Plant response rating (0 to 100), Blackgrass ([13]; 125 g ai/ha, postemergence): 10 | Plant response rating, Blackgrass [13, 17]: 0 | Plant response rating, Blackgrass [13, 18]: 5

From US9695155B2, “Herbicidal substituted pyrimidinyloxy benzene compounds” (E. I. DU PONT DE NEMOURS AND COMPANY, priority 2013, dated 2017)
